Data: PMC3433420 (PLoS ONE, 2012)
Like-named read-outs stand apart in the source and are kept apart here.

Legend:
GRB7 SH2 domain [1] = biological target: T1, GRB7 SH2 domain (Homo sapiens, UniProt Q14451); set-up: 6X His; thioredoxin; made in house; host or cells: E. coli BL21(DE3)pLysS; settings: previous protein microarray data, Figure S5; cited from earlier work
GRB7 SH2 domain [2] = biological target: T1, GRB7 SH2 domain; assay: FP saturation binding assay; settings: peptides queried on both FP and PM platforms
SH2 and PTB domains = settings: original PM interactions, ref Jones et al. 2006 / Kaushansky et al. Chem and Biol 2008, cited from earlier work
Source text: Supplement pone.0044471.s022.xlsx, sheet "Most recent PM interactions" | column: Kd || Supplement pone.0044471.s022.xlsx, sheet "All original PM interactions" | column: Kd

T1 sequence (Q14451 431-527 limits assumed): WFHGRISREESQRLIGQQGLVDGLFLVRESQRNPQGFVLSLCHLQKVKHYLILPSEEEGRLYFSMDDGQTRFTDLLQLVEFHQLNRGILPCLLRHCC

Substance: FDNLpYYWDQDPPEd [ErbB2 pY1221, N-terminally rhodamine-labeled 13-mer phosphopeptide]
- interaction with GRB7 on the PM platform (GRB7 SH2 domain [1]): only displayed interactions with GRB7 from the PM platform
- interaction with GRB7 on the FP platform (GRB7 SH2 domain [2]): only displayed interactions with GRB7 from the PM platform
- Kd (SH2 and PTB domains; Protein ABL2): 0.5 µM
- Kd (SH2 and PTB domains; Protein BLK): 1.2 µM
- Kd (SH2 and PTB domains; Protein BLNK): 1.56 µM
- Kd (SH2 and PTB domains; Protein BMX): 2 µM
- Kd (SH2 and PTB domains; Protein FGR): 2 µM
- Kd (SH2 and PTB domains; Protein GRB10): 0.12 µM
- Kd (SH2 and PTB domains; Protein GRB14): 1.4 µM
- Kd (SH2 and PTB domains; Protein ITK): 1.52 µM
- Kd (SH2 and PTB domains; Protein LYN): 0.93 µM
- Kd (SH2 and PTB domains; Protein PIK3R1-C): 2 µM
- Kd (SH2 and PTB domains; Protein PIK3R1-NC): 1.16 µM
- Kd (SH2 and PTB domains; Protein PIK3R2-N): 0.95 µM
- Kd (SH2 and PTB domains; Protein PIK3R2-NC): 2 µM
- Kd (SH2 and PTB domains; Protein PIK3R3-C): 1.91 µM
- Kd (SH2 and PTB domains; Protein PIK3R3-N): 2 µM
- Kd (SH2 and PTB domains; Protein PIK3R3-NC): 2 µM
- Kd (SH2 and PTB domains; Protein PLCG1-C): 2 µM
- Kd (SH2 and PTB domains; Protein PLCG1-N): 1.93 µM
- Kd (SH2 and PTB domains; Protein PLCG1-NC): 1.96 µM
- Kd (SH2 and PTB domains; Protein PLCG2-N): 2 µM
- Kd (SH2 and PTB domains; Protein PLCG2-NC): 2 µM
- Kd (SH2 and PTB domains; Protein PTPN11-N): 2 µM
- Kd (SH2 and PTB domains; Protein RASA1-N): 0.37 µM
- Kd (SH2 and PTB domains; Protein RASA1-NC): 0.9 µM
- Kd (SH2 and PTB domains; Protein SH2D3A): 1.28 µM
- Kd (SH2 and PTB domains; Protein SH2D3C): 0.16 µM
- Kd (SH2 and PTB domains; Protein SH3BP2): 2 µM
- Kd (SH2 and PTB domains; Protein SHB): 0.21 µM
- Kd (SH2 and PTB domains; Protein SHC1-PTB): 0.17 µM
- Kd (SH2 and PTB domains; Protein SHC2-PTB): 0.43 µM
- Kd (SH2 and PTB domains; Protein SHD): 2 µM
- Kd (SH2 and PTB domains; Protein SHF): 0.34 µM
- Kd (SH2 and PTB domains; Protein SLA2): 1.44 µM
- Kd (SH2 and PTB domains; Protein SLA): 1.07 µM
- Kd (SH2 and PTB domains; Protein SOCS1): 1.23 µM
- Kd (SH2 and PTB domains; Protein SRC): 0.035 µM
- Kd (SH2 and PTB domains; Protein SUPT6H): 1.57 µM
- Kd (SH2 and PTB domains; Protein SYK-C): 2 µM
- Kd (SH2 and PTB domains; Protein SYK-N): 0.26 µM
- Kd (SH2 and PTB domains; Protein SYK-NC): 0.41 µM
- Kd (SH2 and PTB domains; Protein TEC): 0.77 µM
- Kd (SH2 and PTB domains; Protein TXK): 1.23 µM
- Kd (SH2 and PTB domains; Protein VAV2): 1.75 µM
- Kd (SH2 and PTB domains; Protein VAV3): 1.65 µM
- Kd (SH2 and PTB domains; Protein YES1): 0.045 µM
- Kd (SH2 and PTB domains; Protein ZAP70-NC): 1.44 µM
